This is an account of results in patent publication US7914763B1, “Process and apparatus for preparing manganese thiosulfate (MnTS) solution” (Tessenderlo Kerley, Inc., priority 2010, dated 2011).

The conditions of data set [1]: at 25° C. The source says:
Manganese thiosulfate, also referred to herein as “MnTS”, is a liquid source of Mn with up to 20% concentration.

For data set [2] the following is noted: pH of the compound as Mn plant nutrient source in water; cited from earlier work.

In the case of manganese thiosulfate [MnTS], the “pH of solution of manganese thiosulfate” value in data set [1] was 5-6. The “Mn concentration of saturated solution of MnTS” value (MnTS prepared by salt exchange of MnSO4 with calcium thiosulfate, evaporated to point of crystal formation, percent by weight) is reported as 5.85 % Mn. For the same compound, for the setting “saturated solution, corresponding to measured Mn, percent by weight”, the “Solubility of MnTS (saturated solution)” value was around 17 % MnTS. Also, the “Maximum solubility of MnTS” value (solid from evaporation redissolved in aqueous solution at ambient temperature, calculated from Mn concentration) was 17-18%.
`O=S(=O)([O-])[O-].[Mn+2]` [MnSO4, manganese sulfate]: the “respective pH” value in data set [2] is reported as 2.8.
Turning to manganese carbonate [MnCO3], the “respective pH” value in data set [2] is 6.4.
